Measurements taken from patent US5188642A, “Glyphosate-resistant plants” (priority 1990, dated 1993).

Key:
petunia leaf disks = assay: Callus growth from petunia leaf disks on MS media with glyphosate; type: cell-based
Procedure: Leaf disks with diameters of 6 mm (1/4 inch) were taken from surface-sterilized petunia leaves. They were cultivated on MS104 agar medium for 2 days to promote partial cell wall formation at the wound surfaces. They were then submerged in a culture of A. tumefaciens cells containing both pMON546 and GV3111-SE which had been grown overnight in Luria broth at 28° C., and shaken gently. The cells were removed from the bacterial suspension, blotted dry, and incubated upside down on filter paper placed over "nurse" cultures of tobacco cells, as described in Horsch 1981. Afer 2 or 3 days, the disks were transferred to petri dishes containing MS media with 500 μg/ml carbenicillin and 0, 0.1, 0.25, or 0.5 mM glyphosate (sodium salt), with no nurse cultures.
Control tissue was created using A. tumefaciens cells containing the helper plasmid pGV3111-SE and a different plant transformation vector, pMON505, which contained a T-DNA region with a NOS/NPTII/NOS kanamycin resistance gene and a NOS selectable marker gene identical to pMON546, but without the CaMV/EPSPS gene.
Within 10 days after transfer to the media containing glyphosate, actively growing callus tissue appeared on the periphery of all disks on the control plate containing no glyphosate. […] This confirms that the CaMV/EPSPS gene conferred glyphosate resistance upon the transformed cells.

sunflower plants = assay: Sunflower plants sprayed with glyphosate; type: in vivo
tobacco leaf fragments = assay: Tobacco leaf callus assay on glyphosate; type: cell-based, tobacco (Samsun variety); conditions: 0.5 mM glyphosate, 10 days
Procedure: Transformed tobacco plants (Samsun variety) were produced and grown by the method described in Example 4, substituting transformed tobacco leaf disks for transformed petunia leaf disks.
Tobacco plants were tested for glyphosate resistance using the method described for tomato plants in Example 5. Tobacco leaf fragments from plants containing vector alone (pMON200) or the pMON546 chimeric EPSPS gene were incubated on callus medium containing 0.5 mM glyphosate.

[1] = test system: potato stem explant tissue; conditions: tissue transformed with pMON542
Procedure: Potato--Shoot tips of virus-free Russet Burbank are subcultured on media containing MS major and minor salts, 0.17 g/l sodium dihygrogen phosphate, 0.4 mg/l thiamine hydrochloride, 0.1 g/l inositol, 3% sucrose, 1.5 g/l Gelrite™ (Kelco, Co ) at pH 5.6. Cultures are grown at 24C in a 16 hour photoperiod. Shoots are used approximately 3-4 weeks after subculturing. Stem internodes are cut into approximately 8 mm lengths and split lengthwise, then the cut surface is smeared with Agrobacterium carrying binary vector pMON542 and helper plasmid pTiT37-SE which had been streaked on an LB agar plate and grown for a few days. Stem sections are placed cut side down on the surface of the medium containing MS salts, MS organics, 3% sucrose, 2.25 mg/l BA, […] NAA, 10 mg/l GA, 1.5 g/l Gelrite at pH 5.6. After 4 days, the stem explants are transferred to the same medium but with carbenicillin at 500 mg/l and kanamycin as the selective agent at 0 or 300 mg/l. Two weeks after inoculation, the explants are moved onto medium of the same composition but without NAA.

MP4 cells = assay: Culture of MP4 petunia suspension cells in MS media containing glyphosate; type: cell-based; conditions: 0.5 mM glyphosate (sodium salt)
Procedure: The starting cell line, designated as the MP4 line, was derived from a Mitchell diploid petunia (see, e.g., Ausubel 1980). The MP4 cells were suspended in Murashige and Skoog (MS) culture media, (GIBCO, Grand Island, N.Y.) All transfer involved the transfer of 10 ml of suspension culture into 50 ml of fresh media. Cultivation periods until the next transfer ranged from 10 to 14 days, and were based on visual indications that the culture was approaching saturation.
After two transfers, the surviving cells were transferred into fresh media containing 1.0 mM glyphosate. After two transfers at 1.0 mM, the surviving cells were transferred sequentially into 2.5 mM glyphosate, 5.0 mM glyphosate, and 10 mM glyphosate. The MP4-G cells were subsequently shown (by a Southern blot) to have about 15-20 copies of the EPSPS gene, due to a genetic process called "gene amplification" (see, e.g., Schimke 1982). Although spontaneous mutations might have occurred during the replication of any cell, there is no indication that any mutation or other modification of the EPSPS gene occurred during the gene amplification process. The only known difference between the MP4 and the MP4-G cells is that the MP4-G cells contain multiple copies of an EPSPS gene and possibly other genes located near it on the chromosomes of the cells.

transgenic canola lines = assay: Glyphosate spray test, reproductive scores of transgenic canola (Example 21); type: in vivo
Text: Transgenic plants containing the Arabidopsis EPSP synthase gene containing a single glycine to alamine mutation at […] 101 driven by either the FMV promoter or the CaMVe35S promoter were obtained and analyzed for resistance to glyphosate. The transgenic plants containing the Arabidopsis EPSP synthase gene (as described above) directed by the FMV promoter contained pMON996, FIG. 12 and FIG. 13, while those plants containing the enhanced CaMVe35S promoter contained pMON899. These transgenic plants were planted and the seed from the Ro plants harvested, threshed and dried before planting for a glyphosate spray test. The progeny were planted in 4-inch square pots of Metro 350 and three types of slow release fertilizers. A goal of twenty seedlings from each Ro plant is desirable for testing. Germination frequency is usually high but overplanting ensures that twenty seedlings are present. The plants were thinned down by selecting the twenty most vigorous and erect seedlings seven to ten days after planting. A negative control (non-transformed, "Westar" variety) was planted at the same time to maintain quality and display the results. The plants were maintained and grown in a greenhouse environment. A sixteen-hour photoperiod and a temperature of 21° C. (day) and 15° C. (night) was maintained. […]

SMILES: O=C(O)CNCP(=O)(O)O [glyphosate, N-phosphonomethylglycine]
- callus growth, control disks versus transformed tissue (petunia leaf disks; 0.1 mM glyphosate (sodium salt), within 10 days, control pMON505, transformed pMON546): little detectable difference between the control disks and the transformed tissue
- callus growth (petunia leaf disks; control disks (pMON505), 0.25 mM glyphosate (sodium salt)): very little growth of callus from control disks
- callus growth (petunia leaf disks; control disks (pMON505), 0.5 mM glyphosate (sodium salt)): no callus growth from the control disks
- callus growth (petunia leaf disks; transformed disks (pMON546, CaMV/EPSPS), 0.5 mM glyphosate (sodium salt)): a significant number of calli grew from the transformed disks
- callus growth (petunia leaf disks; transformed tissue (pMON546, CaMV/EPSPS), 0.25 mM glyphosate (sodium salt)): substantial growth of transformed tissue occurred
- plant tolerance to spray (sunflower plants; transformed sunflower plants): demonstrate tolerance to glyphosate
- plant response to spray (sunflower plants; wild type sunflower plants): kill wild type plants
- callus growth from leaves (tobacco leaf fragments; control tobacco leaves (pMON200 vector alone)): completely inhibited and showed no signs of callus growth
- glyphosate resistance of leaves (tobacco leaf fragments; leaves from plants transformed with chimeric petunia EPSPS gene (pMON546)): confers glyphosate resistance to tobacco plants
- resistance of tissue [1]: exhibits substantial resistance to glyphosate
- viability at 500 µM (MP4 cells; estimated, read-out: cells which survived, share of the starting population): < 1%
- ability of cells to reproduce (MP4 cells; MS media): large majority of cells were unable to reproduce
- reproductive scores (scale 0-10) (transgenic canola lines; 0.28 Kg/ha, 28 days after spraying, three of the seven lines with FMV promoter (pMON996) versus CaMVe35S lines (pMON899), FIG. 14): better than any of the scores from lines containing the CaMVe35S promoter (pMON899)
- level of glyphosate tolerance (transgenic canola lines; transgenic lines containing pMON899 (CaMVe35S promoter) used in FIG. 14): highest levels of glyphosate tolerance among 150 lines previously tested
